Results published in US9604974B2, “Compounds as modulator of JAK-STAT pathway, methods and applications thereof” (UNIVERSITY OF MYSORE, priority 2015, dated 2017).

Legend:
[1] = tested on: DU145 (prostrate cancer cell line); experiment: MTT anti-proliferative assay, DU145; assay type: cell-based; settings: Homo sapiens, DU-145
Experimental: (§1) The anti-proliferative activity of Formula I compounds are studied on HepG2 cells using MTT assay. Briefly, the cells (2.5×10^4/ml) are incubated in triplicate in a 96-well plate in the presence or absence of different concentrations of compounds in a final volume of 0.2 ml up to 72 hours at 37° C. Thereafter, 20 μl MTT solution (5 mg/ml in PBS) is added to each well. After 2 hours of incubation at 37° C., 0.1 ml lysis buffer (20% SDS, 50% dimethyl-formamide) is added; incubation is continued overnight at 37° C.; and the optical density (OD) at 570 nm is measured by Tecan plate reader.
(§2) Additionally, Compound 1 is tested on a panel of six cell lines including Hep3B, PLC/PRF5, AGS (gastric cancer cell line), DU145 (prostrate cancer cell line), MDA MB231 (breast cancer cell line) and CAL27 (head and neck cancer cell line) cells.

Hep3B = experiment: MTT anti-proliferative assay, Hep3B; assay type: cell-based; settings: Homo sapiens
Experimental: as §1, §2

HepG2 cells [2] = experiment: CXCL12-induced wound migration assay; assay type: cell-based, human; settings: 5 μM CIMO, presence and absence of CXCL12, versus controls
Experimental: STAT3 targeted gene products are known to be involved in cancer cell migration. FIG. 5A interprets the movement of cancer cells in the presence and absence of CIMO and C—X—C motif chemokine 12 (CXCL12) protein. CXCL12 is a chemokine which essentially stimulates the swift migration of cancer cells. An IBIDI culture insert (IBIDI GmbH) is developed with two reservoirs separated by a 500 μm thick wall created by a culture insert in a 35 mm petri dish. 70 μl of HepG2 cells (5×10^5 cells/ml) are added into the two reservoirs of the same insert and incubated at about 37° C. After 12 hours, the insert is gently removed by creating a gap of ˜500 μm. The cells are treated with about 5 μM CIMO for about 8 hours before being exposed to about 100 ng/mL CXCL12 for about 24 hours. Width of wound is measured at time zero and 24 hours of incubation with and without CIMO in the absence or presence of CXCL12. Graphs are plotted against the percentage of migration or distance the cells moved before and after treatment, normalized to control.

HepG2 cells [3] = experiment: Cell cycle distribution by PI flow cytometry (sub-G1); assay type: cell-based, human; settings: HepG2, 10 μMol/L CIMO
Experimental: FIG. 1 depicts the accumulation of HepG2 cells in SubG1 phase caused by Compound 1 (CIMO). HepG2 cells (5×10^5/mL) are treated with 10 μMol/L CIMO for indicated time points, after which the cells are washed, fixed, stained with PI, and analyzed for DNA content by flow cytometry.
In late apoptosis, activation of endonucleases leads to fragmentation of genomic DNA into oligomers thereby contributing to a decrease in DNA content, which in turn leads to the buildup of cells in Sub-G1 phase. In order to evaluate the effect of Compound 1 on cell cycle distribution of HepG2 cells, flow cytometric analysis is performed. HepG2 cells are treated with CIMO at different time intervals up to 48 hours. Thereafter, cells are washed, fixed with 70% ethanol, and incubated for about 30 minutes about at 37° C. with 0.1% RNaseA in PBS. Cells are then washed again, resuspended, and stained in PBS containing 25 μg/ml propidium iodide (PI) for about 30 minutes at room temperature. Cell distribution across the cell cycle after PI staining is analyzed with a Beckman Coulter flow cytometer.

caspase-3 and PARP = experiment: Western blot of procaspase-3 and PARP cleavage; assay type: cell-based, human; settings: HepG2, 10 μMol/L CIMO, time dependent
Experimental: FIG. 4 depicts activation of caspase-3 and induction of apoptosis by Compound 1 (CIMO) [A]. HepG2 cells (5×10^5/mL) are treated with 10 μMol/L CIMO for the indicated times, whole-cell extracts are prepared, separated on SDS-PAGE, and subjected to Western Blotting against caspase-3 and PARP antibody. The same blot is stripped and reprobed with Beta actin antibody to show equal protein loading. [B] Tyrosine phosphatase inhibitor-sodium pervanadate reverses the inhibitory effect of Compound 1 (CIMO) on phospho-STAT3. HepG2 cells (5×10^5/mL) are treated with the indicated concentrations of sodium pervanadate and 10 μMol/L CIMO for about 4 hours, after which whole-cell extracts are prepared, resolved on SDS-PAGE gel, electrotransferred onto nitrocellulose membrane, and probed for phospho-STAT3 and STAT3. [C] illustrates the inhibitory activity of Compound 1 (CIMO) on phospho-STAT3 mediated by protein tyrosine phosphatase. […]
To detect STAT3-regulated proteins and PARP, cells (2×10^6/ml) are treated with CIMO for the indicated times as shown in respective FIGS. 3E, 3D and 4A. […] Whole-cell extract protein (30 μg) is resolved on SDS-PAGE, electrotransferred onto a nitrocellulose membrane, blotted with antibodies against survivin, Bcl-2, Bcl-xL, cyclin D1, Bak, Bid, ICAM-1, procaspase-3, and PARP and then detected by chemiluminescence (ECL; GE Healthcare, Little Chalfont, Buckinghamshire, UK).

IC50 [1]: 38.8 µM | IC50 (Hep3B): 46.9 µM
SMILES: COc1ccc(C2CNC(c3cn(Cc4ccc(-c5ccccc5C#N)cc4)c4ccccc34)OC23CCCCC3)cc1 (stereo not drawn) [Compound 1]
limitation of HepG2 cell migration (HepG2 cells [2]): ~50% | sub-G1 cell population (HepG2 cells [3]; 16 hours): 18.8% | sub-G1 cell population (HepG2 cells [3]; 24 hours): 38.7% | sub-G1 cell population (HepG2 cells [3]; 36 hours): 71% | sub-G1 cell population (HepG2 cells [3]; 48 hours): 92.1% | full length PARP / cleaved 85-kDa fragment (caspase-3 and PARP): decline of full length PARP with increase in cleaved 85-kDa fragment | procaspase-3 activation (caspase-3 and PARP): activation of procaspase-3
